Reference: PMC11923636, “Synthesis, Pharmacological Evaluation, and Molecular Modeling of Phthalimide Derivatives as Monoamine Oxidase and Cholinesterase Dual Inhibitors” (ACS Omega, 2025)
Where “and” joins values, the source holds several entries; their conditions need not be identical. Equal values may be shown once.

target: Electrophorus electricus AChE (Electrophorus electricus, UniProt O42275); test: biochemical; format: biochemical; conditions: mean ± SEM, n = 3; read-out: IC50 (μM) ± SEM eeAChE
Procedure: (§1) The synthesized compounds were evaluated for their inhibition potential against cholinesterases (Electrophorus electricus AChE and equine serum lyophilized BChE).
(§2) The cholinesterase in vitro bioassay for the synthesized compounds was performed using already reported protocols.[29],[30] Ellman’s assay method was used to study the inhibition of Electrophorus electricus AChE and Equine Serum lyophilized BChE. Stock solutions of synthesized compounds were prepared in potassium phosphate buffer (pH 8.0). A sufficient amount of 5,5-dithio-bis-2-nitrobenzoic acid (DTNB, Ellman’s reagent), a stock solution of synthesized compounds, and 0.03 U/ml of the enzyme (AChE or BChE) were added to a 96-well plate and incubated at 30 °C for 10 min. Subsequently, 1 mM ATCI or BTCI was added, and the reaction mixture was incubated for 15 min. […] Sample concentration was plotted against inhibitory activity to obtain IC50 values.

Electrophorus electricus AChE, sequence (O42275 24-633): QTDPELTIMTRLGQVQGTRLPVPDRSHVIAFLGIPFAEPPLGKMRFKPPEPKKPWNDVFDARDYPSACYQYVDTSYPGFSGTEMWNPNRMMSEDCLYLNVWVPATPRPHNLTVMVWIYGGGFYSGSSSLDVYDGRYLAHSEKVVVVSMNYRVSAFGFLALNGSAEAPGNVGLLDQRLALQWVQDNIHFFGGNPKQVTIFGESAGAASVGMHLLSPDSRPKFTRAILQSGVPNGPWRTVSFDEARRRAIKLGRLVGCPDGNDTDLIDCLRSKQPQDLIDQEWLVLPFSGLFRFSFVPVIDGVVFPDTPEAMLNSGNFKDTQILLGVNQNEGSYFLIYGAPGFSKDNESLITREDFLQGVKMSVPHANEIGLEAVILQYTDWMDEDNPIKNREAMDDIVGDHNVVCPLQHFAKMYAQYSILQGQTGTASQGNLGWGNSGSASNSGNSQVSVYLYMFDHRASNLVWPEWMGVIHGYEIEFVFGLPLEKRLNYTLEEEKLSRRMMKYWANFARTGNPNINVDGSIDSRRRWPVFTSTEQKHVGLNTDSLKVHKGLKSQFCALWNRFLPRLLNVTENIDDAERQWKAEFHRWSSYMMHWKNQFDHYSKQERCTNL

**Q.** `O=C1c2ccccc2C(=O)N1Cc1ccc(-c2ccc([N+](=O)[O-])cc2)cc1` [3c] was tested. Which IC50 did it give?
**A.** 0.94 ± 0.12 µM

**Q.** `O=C1c2ccccc2C(=O)N1Cc1ccc(-c2cccc3ccccc23)cc1` [3j] was tested. Which IC50 did it give?
**A.** 0.61 ± 0.03 µM

**Q.** For `O=C1c2ccccc2C(=O)N1Cc1ccc(-c2ccc3c(c2)OCO3)cc1` [3k], which IC50 is on record?
**A.** 21.1 ± 0.47 µM

**Q.** With `Cc1cc(C)cc(-c2ccc(CN3C(=O)c4ccccc4C3=O)cc2)c1` [3h] as the molecule, how does the IC50 read?
**A.** 0.73 ± 0.04 µM

**Q.** `Cc1ccc2cc(-c3ccc(CN4C(=O)c5ccccc5C4=O)cc3)ccc2n1` [3m] was tested. Which IC50 did it give?
**A.** 0.89 ± 0.1 µM

**Q.** Which IC50 does the source give for `N#Cc1ccc(-c2ccc(CN3C(=O)c4ccccc4C3=O)cc2)cc1` [3d] here?
**A.** 9.21 ± 0.14 µM

**Q.** How did the IC50 turn out when `Cc1cc(C)c(-c2ccc(CN3C(=O)c4ccccc4C3=O)cc2)c(C)c1` [3i] was run?
**A.** 0.88 ± 0.05 µM

**Q.** How did the IC50 turn out when `Cc1ccc(-c2ccc(CN3C(=O)c4ccccc4C3=O)cc2)cc1` [3a] was run?
**A.** 3.16 ± 0.09 µM

same assay, conditions: selectivity index

**Q.** `O=C1c2ccccc2C(=O)N1Cc1ccc(-c2ccc([N+](=O)[O-])cc2)cc1` [3c] was tested. Which “SI = IC50 of BChE/IC50 of AChE” value did it give?
**A.** 52

**Q.** Which “SI = IC50 of BChE/IC50 of AChE” value does the source give for `O=C1c2ccccc2C(=O)N1Cc1ccc(-c2cccc3ccccc23)cc1` [3j] here?
**A.** 31

**Q.** Which “SI = IC50 of BChE/IC50 of AChE” value does the source give for `O=C1c2ccccc2C(=O)N1Cc1ccc(-c2ccc3c(c2)OCO3)cc1` [3k] here?
**A.** 3.8 and 4

**Q.** How did the “SI = IC50 of BChE/IC50 of AChE” value turn out when `Cc1cc(C)cc(-c2ccc(CN3C(=O)c4ccccc4C3=O)cc2)c1` [3h] was run?
**A.** 40

**Q.** Which “SI = IC50 of BChE/IC50 of AChE” value does the source give for `Cc1ccc2cc(-c3ccc(CN4C(=O)c5ccccc5C4=O)cc3)ccc2n1` [3m] here?
**A.** 35

**Q.** `N#Cc1ccc(-c2ccc(CN3C(=O)c4ccccc4C3=O)cc2)cc1` [3d] was tested. Which “SI = IC50 of BChE/IC50 of AChE” value did it give?
**A.** 4

**Q.** `Cc1cc(C)c(-c2ccc(CN3C(=O)c4ccccc4C3=O)cc2)c(C)c1` [3i] was tested. Which “SI = IC50 of BChE/IC50 of AChE” value did it give?
**A.** 56

**Q.** For `Cc1ccc(-c2ccc(CN3C(=O)c4ccccc4C3=O)cc2)cc1` [3a], which “SI = IC50 of BChE/IC50 of AChE” value is on record?
**A.** 15

target: T1, human MAO-A (Homo sapiens, UniProt P21397); test: Human MAO isoform inhibition assay (fluorometric), MAO-A; format: biochemical; conditions: mean ± SEM, n = 3; read-out: IC50 (μM) ± SEM hMAO-A
T1 sequence (P21397 1-527): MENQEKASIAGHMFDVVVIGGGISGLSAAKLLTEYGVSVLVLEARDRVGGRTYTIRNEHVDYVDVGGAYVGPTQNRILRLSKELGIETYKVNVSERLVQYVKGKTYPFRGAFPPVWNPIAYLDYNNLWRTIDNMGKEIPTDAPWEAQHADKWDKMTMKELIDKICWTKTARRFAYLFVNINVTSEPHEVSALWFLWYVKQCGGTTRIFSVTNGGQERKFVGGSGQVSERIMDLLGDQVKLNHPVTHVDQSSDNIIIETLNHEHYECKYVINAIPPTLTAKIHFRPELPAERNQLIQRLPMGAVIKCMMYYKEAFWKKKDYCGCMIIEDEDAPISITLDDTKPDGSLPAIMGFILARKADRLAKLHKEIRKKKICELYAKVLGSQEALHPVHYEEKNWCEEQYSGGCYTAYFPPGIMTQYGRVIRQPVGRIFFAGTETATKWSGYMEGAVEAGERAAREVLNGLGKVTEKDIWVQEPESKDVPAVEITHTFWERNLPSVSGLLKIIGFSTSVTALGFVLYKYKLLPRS
Procedure: (§3) The human MAO isoform assay was also carried out using a fluorescence-based assay protocol according to the reported literature.
(§4) Inhibitory activity of the synthesized compounds against MAO isoforms, specifically human MAO-A and MAO-B, was determined by using benzylamine and tyramine substrates in the dark (protected from light) in a 96-well plate by an already reported fluorometric method.[31],[32]

**Q.** With `O=C1c2ccccc2C(=O)N1Cc1ccc(-c2ccc([N+](=O)[O-])cc2)cc1` [3c] as the molecule, how does the IC50 read?
**A.** 19.4 ± 1.21 µM

**Q.** Which IC50 does the source give for `O=C1c2ccccc2C(=O)N1Cc1ccc(-c2cccc3ccccc23)cc1` [3j] here?
**A.** 6.98 ± 0.2 µM

**Q.** Which IC50 does the source give for `O=C1c2ccccc2C(=O)N1Cc1ccc(-c2ccc3c(c2)OCO3)cc1` [3k] here?
**A.** 40.4 ± 1.31 µM

**Q.** Which IC50 does the source give for `Cc1cc(C)cc(-c2ccc(CN3C(=O)c4ccccc4C3=O)cc2)c1` [3h] here?
**A.** 75.1 ± 1.25 µM

**Q.** `Cc1ccc2cc(-c3ccc(CN4C(=O)c5ccccc5C4=O)cc3)ccc2n1` [3m] was tested. Which IC50 did it give?
**A.** 23.5 ± 1.12 µM

**Q.** How did the IC50 turn out when `N#Cc1ccc(-c2ccc(CN3C(=O)c4ccccc4C3=O)cc2)cc1` [3d] was run?
**A.** 28.8 ± 1.44 µM

**Q.** With `Cc1cc(C)c(-c2ccc(CN3C(=O)c4ccccc4C3=O)cc2)c(C)c1` [3i] as the molecule, how does the IC50 read?
**A.** 50.9 ± 1.42 µM

**Q.** Which IC50 does the source give for `Cc1ccc(-c2ccc(CN3C(=O)c4ccccc4C3=O)cc2)cc1` [3a] here?
**A.** 19.3 ± 1.28 µM

target: T2, human MAO-B (Homo sapiens, UniProt P27338); test: Human MAO isoform inhibition assay (fluorometric), MAO-B; format: biochemical; conditions: mean ± SEM, n = 3; read-out: IC50 (μM) ± SEM hMAO-B
T2 sequence (P27338 1-520): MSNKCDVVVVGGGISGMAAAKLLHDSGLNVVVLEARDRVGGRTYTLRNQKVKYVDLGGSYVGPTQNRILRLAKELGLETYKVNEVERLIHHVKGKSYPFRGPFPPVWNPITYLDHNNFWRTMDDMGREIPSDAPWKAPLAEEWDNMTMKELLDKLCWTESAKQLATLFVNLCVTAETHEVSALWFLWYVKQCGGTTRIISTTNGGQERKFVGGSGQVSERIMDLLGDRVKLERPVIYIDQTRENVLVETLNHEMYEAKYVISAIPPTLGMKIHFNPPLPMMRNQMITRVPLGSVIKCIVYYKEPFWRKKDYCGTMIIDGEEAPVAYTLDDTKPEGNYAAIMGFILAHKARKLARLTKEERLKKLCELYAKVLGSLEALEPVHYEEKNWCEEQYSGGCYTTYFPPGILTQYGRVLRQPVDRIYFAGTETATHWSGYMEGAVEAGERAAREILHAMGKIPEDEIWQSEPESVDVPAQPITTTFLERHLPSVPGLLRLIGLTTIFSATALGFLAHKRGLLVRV
Procedure: as §3, §4

**Q.** For `O=C1c2ccccc2C(=O)N1Cc1ccc(-c2ccc([N+](=O)[O-])cc2)cc1` [3c], which IC50 is on record?
**A.** 0.24 ± 0.01 µM

**Q.** `O=C1c2ccccc2C(=O)N1Cc1ccc(-c2cccc3ccccc23)cc1` [3j] was tested. Which IC50 did it give?
**A.** 0.13 ± 0.01 µM

**Q.** How did the IC50 turn out when `O=C1c2ccccc2C(=O)N1Cc1ccc(-c2ccc3c(c2)OCO3)cc1` [3k] was run?
**A.** 0.66 ± 0.03 µM

**Q.** With `Cc1cc(C)cc(-c2ccc(CN3C(=O)c4ccccc4C3=O)cc2)c1` [3h] as the molecule, how does the IC50 read?
**A.** 0.64 ± 0.02 µM

**Q.** How did the IC50 turn out when `Cc1ccc2cc(-c3ccc(CN4C(=O)c5ccccc5C4=O)cc3)ccc2n1` [3m] was run?
**A.** 0.15 ± 0.01 µM

**Q.** For `N#Cc1ccc(-c2ccc(CN3C(=O)c4ccccc4C3=O)cc2)cc1` [3d], which IC50 is on record?
**A.** 0.64 ± 0.03 µM

**Q.** How did the IC50 turn out when `Cc1cc(C)c(-c2ccc(CN3C(=O)c4ccccc4C3=O)cc2)c(C)c1` [3i] was run?
**A.** 0.71 ± 0.04 µM

**Q.** Which IC50 does the source give for `Cc1ccc(-c2ccc(CN3C(=O)c4ccccc4C3=O)cc2)cc1` [3a] here?
**A.** 1.04 ± 0.03 µM

same assay, conditions: selectivity index

**Q.** For `O=C1c2ccccc2C(=O)N1Cc1ccc(-c2ccc([N+](=O)[O-])cc2)cc1` [3c], which “SI (IC50 hMAO-A/IC50 hMAO-B)” value is on record?
**A.** 80

**Q.** Which “SI (IC50 hMAO-A/IC50 hMAO-B)” value does the source give for `O=C1c2ccccc2C(=O)N1Cc1ccc(-c2cccc3ccccc23)cc1` [3j] here?
**A.** 53

**Q.** Which “SI (IC50 hMAO-A/IC50 hMAO-B)” value does the source give for `O=C1c2ccccc2C(=O)N1Cc1ccc(-c2ccc3c(c2)OCO3)cc1` [3k] here?
**A.** 61

**Q.** How did the “SI (IC50 hMAO-A/IC50 hMAO-B)” value turn out when `Cc1cc(C)cc(-c2ccc(CN3C(=O)c4ccccc4C3=O)cc2)c1` [3h] was run?
**A.** 117

**Q.** Which “SI (IC50 hMAO-A/IC50 hMAO-B)” value does the source give for `Cc1ccc2cc(-c3ccc(CN4C(=O)c5ccccc5C4=O)cc3)ccc2n1` [3m] here?
**A.** 156

**Q.** With `N#Cc1ccc(-c2ccc(CN3C(=O)c4ccccc4C3=O)cc2)cc1` [3d] as the molecule, how does the “SI (IC50 hMAO-A/IC50 hMAO-B)” value read?
**A.** 45

**Q.** For `Cc1cc(C)c(-c2ccc(CN3C(=O)c4ccccc4C3=O)cc2)c(C)c1` [3i], which “SI (IC50 hMAO-A/IC50 hMAO-B)” value is on record?
**A.** 71

**Q.** With `Cc1ccc(-c2ccc(CN3C(=O)c4ccccc4C3=O)cc2)cc1` [3a] as the molecule, how does the “SI (IC50 hMAO-A/IC50 hMAO-B)” value read?
**A.** 18

target: T3, equine serum lyophilized BChE (Equus caballus, UniProt P81908); test: biochemical; conditions: mean ± SEM, n = 3; read-out: IC50 (μM) ± SEM eqBChE
T3 construct: Equine Serum lyophilized BChE; from tissue; host or cells: equine serum
Procedure: as §1, §2

T3 sequence (P81908 whole entry): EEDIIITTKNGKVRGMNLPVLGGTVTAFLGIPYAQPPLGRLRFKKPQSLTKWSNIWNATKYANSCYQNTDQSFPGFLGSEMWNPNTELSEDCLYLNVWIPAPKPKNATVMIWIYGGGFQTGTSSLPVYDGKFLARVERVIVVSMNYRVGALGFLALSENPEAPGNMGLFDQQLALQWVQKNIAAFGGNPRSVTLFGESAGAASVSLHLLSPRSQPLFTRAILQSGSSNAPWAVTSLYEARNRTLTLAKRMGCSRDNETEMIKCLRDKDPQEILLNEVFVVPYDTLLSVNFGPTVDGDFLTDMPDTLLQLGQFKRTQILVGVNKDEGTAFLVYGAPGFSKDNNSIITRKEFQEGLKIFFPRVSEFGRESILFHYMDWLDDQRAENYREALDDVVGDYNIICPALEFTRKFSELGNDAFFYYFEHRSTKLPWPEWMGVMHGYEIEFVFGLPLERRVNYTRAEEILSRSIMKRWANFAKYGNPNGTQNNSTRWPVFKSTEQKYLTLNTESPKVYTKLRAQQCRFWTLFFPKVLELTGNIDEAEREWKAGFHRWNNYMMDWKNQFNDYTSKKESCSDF

**Q.** Which IC50 does the source give for `O=C1c2ccccc2C(=O)N1Cc1ccc(-c2ccc([N+](=O)[O-])cc2)cc1` [3c] here?
**A.** 49.1 ± 1.39 µM

**Q.** With `O=C1c2ccccc2C(=O)N1Cc1ccc(-c2cccc3ccccc23)cc1` [3j] as the molecule, how does the IC50 read?
**A.** 18.9 ± 1.08 µM

**Q.** Which IC50 does the source give for `O=C1c2ccccc2C(=O)N1Cc1ccc(-c2ccc3c(c2)OCO3)cc1` [3k] here?
**A.** 80.7 ± 1.54 µM

**Q.** With `Cc1cc(C)cc(-c2ccc(CN3C(=O)c4ccccc4C3=O)cc2)c1` [3h] as the molecule, how does the IC50 read?
**A.** 29.6 ± 1.16 µM

**Q.** Which IC50 does the source give for `Cc1ccc2cc(-c3ccc(CN4C(=O)c5ccccc5C4=O)cc3)ccc2n1` [3m] here?
**A.** 31.1 ± 0.79 µM

**Q.** Which IC50 does the source give for `N#Cc1ccc(-c2ccc(CN3C(=O)c4ccccc4C3=O)cc2)cc1` [3d] here?
**A.** 33.5 ± 1.09 µM

**Q.** How did the IC50 turn out when `Cc1cc(C)c(-c2ccc(CN3C(=O)c4ccccc4C3=O)cc2)c(C)c1` [3i] was run?
**A.** 49.2 ± 1.11 µM

**Q.** How did the IC50 turn out when `Cc1ccc(-c2ccc(CN3C(=O)c4ccccc4C3=O)cc2)cc1` [3a] was run?
**A.** 49.1 ± 1.36 µM
